Source: US20250213478A1, “CATIONIC LIPID HAVING DISULFIDE BOND, LIPID MEMBRANE STRUCTURE INCLUDING SAME, NUCLEIC ACID INTRODUCTION AGENT AND PHARMACEUTICAL COMPOSITION CONTAINING ANY ONE OF SAME, METHOD FOR INTRODUCING NUCLEIC ACID INTO CELL OR TARGET CELL, AND METHOD FOR PRODUCING CELLULAR PHARMACEUTICAL” (NOF Corporation, priority 2022, published 2025)

Key:
[1] = Measurement of Liposomal pKa of LNP (TNS fluorescence); format: physicochemical; conditions: LNP without nucleic acid, cationic lipid:DOPC:Chol=52.5:7.5:40 + about 1.5 mol DMG-PEG2k; pH at which relative TNS fluorescence intensity was 50%
Procedure: Lipid nanoparticles (LNP) without containing nucleic acid were used for the evaluation of Liposomal pKa.
(§1) A 10 mM ethanol solution of cationic lipid, a 5 mM ethanol solution of DOPC, and a 10 mM ethanol solution of Chol were mixed at desired ratio (cationic lipid:DOPC:Chol=52.5:7.5:40 (molar ratio)) in an Eppendorf tube to achieve the total lipid amount of 720 nmol. To the obtained mixture was further added DMG-PEG2k (2 mM ethanol solution) in an amount of about 1.5 mol with respect to the total amount 100 mol of cationic lipid, DOPC, and Chol, and then ethanol was added to prepare an ethanol solution of the lipid (total amount: 360 μL).
(§2) An acidic malic acid buffer (20 mM, pH 3.0) (1080 μL) containing NaCl at a final concentration of 30 mM and an ethanol solution (360 μL) of lipid were each weighed in a syringe. Using an ultra high-speed nanomedicament producing apparatus NanoAssmblr (manufactured by Precision NanoSystems), LNP was prepared under the conditions of addition rate of acidic buffer solution: 3 mL/min, addition rate of ethanol solution of lipid: 1 mL/min, and syringe holder temperature: 25° C., and collected in a 15 mL tube. MES buffer (pH 6.5) (3000 μL) was added to the 15 mL tube, the obtained mixture was transferred to Amicon Ultra 4, and ultrafiltration was performed under centrifugation conditions (25° C., 1000 g, 6 min) to concentrate the mixture to about 100 μL. The obtained concentrate was diluted with PBS to 4 mL, and the mixture was concentrated again under centrifugation conditions (25° C., 1000 g, 6 min), and this operation was performed twice. The obtained concentrate was diluted with PBS to a lipid concentration of 0.5 mM to give a dispersion containing LNP.
20 mM Citrate buffer, sodium phosphate buffer, and tris HCl buffer, each containing NaCl at a final concentration of 150 mM and adjusted to various pHs within the range of pH 3.0 to 10.0, were prepared. TNS (manufactured by Sigma) was diluted with ultrapure water to 0.6 mM. TNS solution (2 μL), dispersions (12 μL) containing LNP prepared in [Experimental Example 1], 1., and buffers adjusted to various pHs (186 μL) were added to a black 96 well plate. The plate was protected from light and shaken at 400 rpm for 10 min. The fluorescence intensity (excitation: 321 nm/emission: 447 nm) was measured using a plate reader (manufactured by TECAN). The relative fluorescence intensity was calculated as a percentage, with the maximum value of the fluorescence intensity in each LNP being 100% and the minimum value being 0%. Furthermore, the pH at which the relative fluorescence intensity was 50% was taken as Liposomal pKa. In Comparative Example, the cationic lipid described in the aforementioned Table 3 were used.

[2] = Particle size, PdI and zeta potential of mRNA-encapsulating LNPs (dynamic light scattering); format: physicochemical; conditions: mRNA-encapsulating LNP, cationic lipid:DOPC:Chol=55:5:40 + about 1 mol DMG-PEG2k; for PdI / particle size: dynamic light scattering; for zeta potential: physiological pH
Procedure: as §1, with “lipid:DOPC:Chol=55:5:40” for “lipid:DOPC:Chol=52.5:7.5:40”, “1” for “1.5”
An acidic buffer solution (total amount: 1080 μL) of nucleic acid was prepared by weighing 7.2 μg of mRNA solution (0.6 mg/mL) in a 5 mL tube and adding acidic malate buffer (20 mM, pH 3.0) containing NaCl at a final concentration of 30 mM.
as §2, with “buffer solution of nucleic” for “malic”, “acid” for “acid buffer (20 mM, pH 3.0) (1080 μL) containing NaCl at a final concentration of 30 mM”, “solution” for “solution (360 μL)”, “solution of nucleic acid:” for “solution:”, “2” for “0.5”
The particle size, PdI (Polydispersity Index), and zeta potential of the mRNA-encapsulating LNP prepared by the method of the above-mentioned 1 were measured by a dynamic light scattering method. In Comparative Example, the cationic lipid described in the aforementioned Table 3 were used.

HeLa cells = assay: Evaluation of in vitro gene expression in HeLa cell (luciferase mRNA-encapsulating LNP); format: cell-based, human; conditions: for cumulative luciferase luminescence intensity over 24 hr: luciferase mRNA 0.4 μg per dish, LNP cationic lipid:DOPC:Chol:DMG-PEG2k=55:5:40:1; for gene expression activity compared to Comparative Example: result in words
Procedure: (§3) LNP encapsulating mRNA that expresses luciferase (cationic lipid:DOPC:Chol:DMG-PEG2k=55:5:40:1 (molar ratio)) was prepared by the method described in [Experimental Example 2], 1.
HeLa cells, which are human cervical cancer cells, were seeded in a 3.5 cm dish at 5.0×10^4 cells/2 mL/Dish 24 hours before transfection. After 24 hours, the medium was exchanged with a culture medium (D-MEM) containing 0.1 mM D-luciferin. Prepared mRNA-encapsulating LNP was diluted with PBS such that the concentration of mRNA was about 8 μg/mL. The diluted mRNA-encapsulating LNP solution (about 50 μL, mRNA: 0.4 μg) was added to the 3.5 cm dish and set in an incubator luminometer KronosDio. The luminescence intensity of luciferase was measured for 2 min every one hour. The cumulative luciferase luminescence intensity for 24 hr was calculated from the obtained time change of expression. For example, “1.0E+06” means “1.0×10^6”. In Comparative Example, the cationic lipid described in the aforementioned Table 3 were used.

BALB/c mouse = assay: Evaluation of in vivo gene expression (luciferase mRNA-encapsulating LNP, IVIS of isolated organs)
Procedure: as §3
The prepared each mRNA-encapsulating LNP dispersion was administered from the tail vein of BALB/c mouse (male, 5-week-old). The dose of mRNA was set to 0.05 mg per 1 kg body weight of the mouse, and the dose of the mRNA-encapsulating LNP dispersion was set to 10 μL per 1 g body weight of the mouse. After 4.5 hr from the administration of the mRNA-encapsulating LNP dispersion, a PBS solution of D-luciferin potassium was administered into the abdominal cavity of the mouse. The dose of D-luciferin potassium was set to 3 mg per mouse, and the dose of the PBS solution of D-luciferin potassium was set to 200 μL per mouse. After 15 min from the administration of the PBS solution of D-luciferin potassium, the mouse was euthanized, and the liver, spleen, kidney, heart, and lung were isolated. The luminescence in each organ was quantified using an in vivo imaging system (IVIS) with an exposure of 10 sec. The amount of luminescence in each organ was quantified by image analysis using Live Imaging software attached to IVIS. The amount of luminescence (photons/sec) was calculated from the acquired image and used as an index of gene expression activity. “E+0a” (a: integer) indicated in Table 7 and Table 8 means “10^a”. For example, “1.0E+02” means “1.0×10^2”. In Comparative Example, the cationic lipid described in the aforementioned Table 3 were used.

SMILES	pKa [1]	PdI [2]	particle size [2]	zeta potential [2]	cumulative luciferase luminescence intensity over 24 hr (HeLa cells)	gene expression activity compared to Comparative Example (HeLa cells)	relative value based on Comparative Example (amount of luminescence in spleen) (BALB/c mouse; spleen, relative to O-Ph-P4C2 LNP = 1.00)	gene expression activity in the spleen compared to Comparative Example (BALB/c mouse; spleen, result in words)	amount of luminescence in each organ: heart (BALB/c mouse; tail vein, mRNA 0.05 mg/kg, 4.5 hr + 15 min after administration, heart)	amount of luminescence in each organ: kidney (BALB/c mouse; tail vein, mRNA 0.05 mg/kg, 4.5 hr + 15 min after administration, kidney)	amount of luminescence in each organ: liver (BALB/c mouse; tail vein, mRNA 0.05 mg/kg, 4.5 hr + 15 min after administration, liver)	amount of luminescence in each organ: lung (BALB/c mouse; tail vein, mRNA 0.05 mg/kg, 4.5 hr + 15 min after administration, lung)	amount of luminescence in each organ: spleen (BALB/c mouse; tail vein, mRNA 0.05 mg/kg, 4.5 hr + 15 min after administration, spleen (Table 7))
CCCCCCCCCCCCCC(=O)OCC(C)(COC(=O)CCCCCCCCCCCCC)C(=O)Oc1ccc(CC(=O)OCCSSCCOC(=O)NCCN(CC)CC)cc1 [Example 31]	7.6	0.072	59 nm	4.1 mV	1.58E+08 RLU	superior gene expression activity	1.74	superior gene expression activity	7.26E+05 photons/sec	5.53E+05 photons/sec	2.62E+07 photons/sec	9.16E+05 photons/sec	1.88E+07 photons/sec
CCCCCCCCCCCCCCCCC(CCCCCCCCCCCCCCCC)C(=O)Oc1ccc(CC(=O)OCCSSCCOC(=O)CCCN(CC)CC)cc1 [Example 10]	7.4	0.077	80 nm	4.9 mV	1.90E+08 RLU	superior gene expression activity	–	–	–	–	–	–	–
CCCCCCCCCCCCCCCCC(CCCCCCCCCCCCCCCC)C(=O)Oc1ccc(CC(=O)OCCSSCCN(CC)CC)cc1 [Example 17]	6.2	0.064	105 nm	−2.6 mV	8.39E+04 RLU	–	–	–	–	–	–	–	–
CCCCCCCCCCCCCCCCCCC(CCCCCCCCCCCCCCCCCC)C(=O)Oc1ccc(CC(=O)OCCSSCCOC(=O)CCCN(C)C)cc1 [Example 9]	7.8	0.168	96 nm	12.1 mV	1.25E+08 RLU	superior gene expression activity	–	–	–	–	–	–	–
CCCCCCCCCCCCCCCCC(CCCCCCCCCCCCCCCC)C(=O)Oc1ccc(CC(=O)OCCSSCCOC(=O)CCCN(CCC)CCC)cc1 [Example 12]	6.2	0.071	84 nm	−4.4 mV	1.13E+05 RLU	–	–	–	–	–	–	–	–
CCCCCCCCC(CCCCCC)C(=O)Oc1ccc(CC(=O)OCCSSCCOC(=O)CCCN(C)C)cc1 (stereo not drawn) [Example 4]	7.8	0.116	64 nm	12.2 mV	3.09E+05 RLU	–	–	–	–	–	–	–	–
CCCCCCCCCCC(CCCCCCCCCC)C(=O)Oc1ccc(CC(=O)OCCSSCCOC(=O)CCCN(C)C)cc1 [Example 5]	7.8	0.081	74 nm	−2.9 mV	2.15E+08 RLU	superior gene expression activity	–	–	–	–	–	–	–
CCCCCCCCCCCCCCCCC(CCCCCCCCCCCCCCCC)C(=O)Oc1ccc(CC(=O)NCCSSCCNC(=O)CCN(C)C)cc1 [Example 19]	8.2	0.121	73 nm	13.1 mV	2.55E+07 RLU	superior gene expression activity	–	–	–	–	–	–	–
CCCCCCCCCCCCCCCCC(CCCCCCCCCCCCCCCC)C(=O)Oc1ccc(CC(=O)OCCSSCCOC(=O)CCCN2CCCCC2)cc1 [Example 11]	7	0.079	86 nm	−0.9 mV	6.71E+07 RLU	superior gene expression activity	–	–	–	–	–	–	–
CCCCCCCCCCCCCCCCC(CCCCCCCCCCCCCCCC)C(=O)Oc1ccc(CC(=O)OCCSSCCOC(=O)CCCN(C)C)cc1 [Example 8]	7.8	0.101	72 nm	5.3 mV	2.83E+08 RLU	superior gene expression activity	–	–	–	–	–	–	–
CCCCCCCCCCCCCCCCC(CCCCCCCCCCCCCCCC)C(=O)Oc1ccc(CC(=O)NCCSSCCNC(=O)CN(C)C)cc1 [Example 18]	6.8	0.132	105 nm	5.3 mV	3.99E+06 RLU	–	–	–	–	–	–	–	–
